Data published in PubChem BioAssay (NCI).
Several values for one entry are separate records, joined by “and”; a condition that tells them apart may be missing. Equal values may be shown once.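 Growth conditions: 96-well plates. Treatment: test compound, 48 hours, 5 concentrations. Analysis: linear interpolation between bracketing concentrations; unreached endpoints set to highest concentration. GI50 is the concentration that inhibits growth by half. TGI: total growth inhibition.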

Tests used:
Assay in all cases: inhibition of tumour cell growth, NCI panel, 48 h
A498 renal = system: A498 renal
COLO 205 colon = system: COLO 205 colon
MDA-MB-435 = system: MDA-MB-435
RXF 393 renal = system: RXF 393 renal
SF-268 CNS = system: SF-268 CNS
SF-295 CNS = system: SF-295 CNS
SK-OV-3 ovarian = system: SK-OV-3 ovarian
SNB-19 CNS = system: SNB-19 CNS
SW-620 colon = system: SW-620 colon
EKVX NSCLC = system: EKVX NSCLC

| Compound | GI50 (A498 renal) [µM] | TGI (A498 renal) [µM] | GI50 (COLO 205 colon) [µM] | TGI (COLO 205 colon) [µM] | GI50 (MDA-MB-435) [µM] | TGI (MDA-MB-435) | GI50 (RXF 393 renal) [µM] | TGI (RXF 393 renal) [µM] | GI50 (SF-268 CNS) | TGI (SF-268 CNS) | GI50 (SF-295 CNS) [µM] | TGI (SF-295 CNS) | GI50 (SK-OV-3 ovarian) [µM] | TGI (SK-OV-3 ovarian) [µM] | GI50 (SNB-19 CNS) [µM] | TGI (SNB-19 CNS) | GI50 (SW-620 colon) [µM] | TGI (SW-620 colon) | TGI (EKVX NSCLC) | GI50 (EKVX NSCLC) [µM] |
| --- | --- | --- | --- | --- | --- | --- | --- | --- | --- | --- | --- | --- | --- | --- | --- | --- | --- | --- | --- | --- |
| Cn1cc(C2=C(c3c4n(c5ccccc35)CCNC4)C(=O)NC2=O)c2ccccc21 | 4.71 | 14.3 | 6.66 | > 21.8 | 0.991 | > 17.1 µM | 3.73 | 14.1 | 10.5 µM | > 25 µM | 5.69 | > 25 µM | 8.84 | > 25 | > 22 | > 25 µM | 6.92 | > 25 µM |  |  |
| O=C(C=Nc1ccccc1C(=O)[O-])c1cccs1.O=C(C=Nc1ccccc1C(=O)[O-])c1cccs1.[Ni+2] |  | > 100 |  | > 100 |  |  |  |  |  | > 100 µM |  | > 100 µM |  | > 100 |  | > 100 µM |  | > 100 µM |  |  |
| COC(=O)C1CSC(c2csc(CCN)n2)=N1 (stereo unspecified) |  |  |  | > 100 |  |  |  | > 100 |  |  |  | > 100 µM |  | > 100 |  | > 100 µM |  | > 100 µM | > 100 µM |  |
| Cc1ccc([P+](Cc2ccccc2)(c2ccccc2)c2ccccc2)cc1 | 1.63 | 7.15 |  |  | 0.61 | 3.42 µM | 3.68 | 41.1 | 3.66 µM | > 100 µM | 2.36 | 7.69 µM | 4.1 | > 100 | 2.81 | > 100 µM | 2.66 | 49.6 µM |  |  |
| COc1ccc2c(c1)[n+]([O-])c(-c1cccc(Cl)c1)c(N)[n+]2[O-] |  | > 100 |  | 30.3 |  |  |  | > 100 |  | > 100 µM |  | > 100 µM |  | > 100 |  | > 100 µM |  | > 100 µM | > 100 µM |  |
| COc1cc2c(c(O)c1Cl)C(=O)c1c(O)cc(C[C@H](C)O)cc1[C@H]2[C@H]1c2cc(C[C@H](C)O)cc(O)c2C(=O)c2c1cc(OC)c(Cl)c2O |  |  |  |  |  | 16 µM and 98.3 µM |  |  | 3.36 µM and 31.5 µM | 75 µM and > 100 µM |  | 5.91 µM and 53.6 µM |  |  |  | 75 µM and > 100 µM |  | 75 µM and > 100 µM | 75 µM and 90.9 µM |  |
| O=C(O)CN(c1ccccc1)S(=O)(=O)c1cccc([N+](=O)[O-])c1 |  | > 100 |  | > 100 |  |  |  | > 100 |  | > 100 µM |  | > 100 µM |  | > 100 |  | > 100 µM |  | > 100 µM | > 100 µM |  |
| C/C(CCn1[nH]c(=O)ccc1=O)=N\NC(=O)C(N)=O |  | > 100 |  | > 100 |  |  |  | > 100 |  | > 100 µM |  | > 100 µM |  |  |  | > 100 µM |  | > 100 µM | > 100 µM |  |
| O=C1C(=c2ccc(=C3C(=O)c4ccc([N+](=O)[O-])cc4[N+]3=O)cc2)N([O-])c2cc([N+](=O)[O-])ccc21 | > 100 | > 100 | > 100 | > 100 |  |  | > 100 | > 100 |  |  |  |  | > 100 | > 100 | > 100 | > 100 µM | > 100 | > 100 µM | > 100 µM | > 100 |
| CCCCCCCCCCCCCC[n+]1ccccc1 | 0.717 | 3.57 | 0.614 | 2.12 | 0.549 | 1.87 µM |  |  |  |  | 0.9 | 2.62 µM | 1.45 | 4.26 |  |  | 0.779 | 2.59 µM |  |  |
| COC(=O)C1=COC2OC3C(C(C)O)C(=O)OC34C=CC1C24 (stereo unspecified) |  | > 100 |  | > 100 |  | > 100 µM |  |  |  | > 100 µM |  | > 100 µM |  | > 100 |  | > 100 µM |  | > 100 µM | > 100 µM |  |
| COC(=O)[C@H]1COC(=S)N1C(=O)[C@@H](C)[C@H](O)C(C)C |  | > 100 |  | > 100 |  |  |  | > 100 |  | > 100 µM |  | > 100 µM |  | > 100 |  | > 100 µM |  | > 100 µM | > 100 µM |  |
| O=C(CN1CCN(Cc2ccccc2Cl)CC1)NC1CC(=O)c2c(Br)sc(Br)c21 (stereo unspecified) | 20.5 | 35.4 | 21.2 | 38.4 | 21.5 | 52.5 µM |  |  | 19 µM | 36.7 µM | 25.6 | 57.6 µM | 54.1 | > 100 | 18.6 | 33.1 µM | 19.8 | 36.6 µM | 42 µM | 21.7 |
| O=C(COc1ccccc1Cl)N1N=C(c2ccccc2)CC1(O)c1ccccc1 (stereo unspecified) |  |  |  | 33.9 |  |  |  |  |  | > 100 µM |  | 34.8 µM |  | 47.7 |  | 45.4 µM |  | 79.1 µM |  |  |
| COC(=O)Cc1c([C@@]2(C)CCCC(C)(C)C2)ccc2c1C(=O)OC2 |  | 41.8 |  | 26.4 |  |  |  | 27.9 |  |  |  | 26.1 µM |  | 32.3 |  |  |  | > 100 µM | 59.7 µM |  |
| COc1ccc(Nc2nc3cc(C(F)(F)F)ccc3nc2-c2ccccc2)cc1OC |  | > 100 |  | > 100 |  |  |  | 35.9 |  | > 100 µM |  | 53.3 µM |  | 66.5 |  |  |  | > 100 µM | 71.2 µM |  |
| OCC1OC2c3ccccc3COC2C1OCc1ccccc1 (stereo unspecified) |  |  |  | > 100 |  |  |  | > 100 |  |  |  | > 100 µM |  | > 100 |  | > 100 µM |  | > 100 µM | > 100 µM |  |
| CCc1ccccc1NC(=O)C(C#N)C1=C(Cl)C(=O)c2ccccc2C1=O (stereo unspecified) |  |  |  | 31.1 |  | 63 µM |  | 43.1 |  | 49.8 µM |  | 52.6 µM |  | > 100 |  | 72.3 µM |  | 44 µM | 33.7 µM |  |
| c1ccc2c(c1)SC(=C1Sc3ccccc3S1)S2 |  |  |  | > 100 |  |  |  | > 100 |  | > 100 µM |  | > 100 µM |  | > 100 |  | > 100 µM |  | > 100 µM | > 100 µM |  |
| C[C@@H](N)COc1ccc(-c2cnc3ccc(N[C@H](C)c4cccc(F)c4)nn23)cc1 | 1.52 | 5.58 | 1.1 | 2.96 | 1.47 | 3.07 µM |  |  | 1.85 µM | 6.38 µM | 1.8 | 4.01 µM | 5.05 | 16.9 | 3 | 11.6 µM | 1.55 | 3.44 µM | 12.6 µM | 2.71 |
